{"source": "patent US9488664B2", "about": "“Diagnostic agent for tumor” (SBI Pharmaceuticals Co., Ltd., priority 2012, dated 2016)", "experiment": "Side effects (stomach discomfort, nausea) in individuals given 5-ALA", "assay_type": "in vivo, human", "protocol": "A total of eight individuals including seven healthy volunteers in whom no particular abnormality was found by health examination and the like and one volunteer with a malignant tumor, who was given a diagnosis of cancer by a doctor, were studied. The average body weight of the volunteers was 50 kg. The volunteers were instructed to ingest one capsule encapsulating 100 mg of 5-ALA before sleep and collect the first urine at the time of wake-up. Also, they were instructed to ingest, on another day, three capsules, each encapsulating 100 mg of 5-ALA, before sleep and collect the first urine at the time of wake-up.\nFrom the above results, it was shown that administration at a dose of 300 mg can distinguish between not only the presence and absence of a tumor, but also a malignant tumor and a benign tumor. Also, it was shown that a malignant tumor can be detected by administering 100 mg of 5-ALA.\nA total of 10 individuals including five healthy volunteers in whom no particular abnormality was found by health examination and the like and five volunteers with a malignant tumor, who were given a diagnosis of cancer by a doctor, ingested 1 g of 5-ALA. […]"}
{"smiles": "NCC(=O)CCC(=O)O", "note": "[5-ALA, 5-aminolevulinic acid]", "values": [{"measurement": "stomach discomfort and nausea", "setting": "100 mg and 300 mg 5-ALA oral, eight individuals", "value": "neither stomach discomfort nor nausea was observed"}, {"measurement": "stomach discomfort and nausea", "setting": "1 g 5-ALA ingested, 10 individuals", "value": "some of the volunteers developed stomach discomfort and nausea"}]}
